# Experimental data reported in patent US8633245B2, “PAI-1 inhibitor” (Institute of Medicinal Molecular Design, Inc., priority 2008, dated 2014).
# Target: T1, recombinant human PAI-1 (Homo sapiens, UniProt P05121)
# T1 construct: purchased Molecular Innovations, Inc
# Test: Test Example 2: human PAI-1 inhibitory activity (tPA fluorogenic substrate, pH 7.4 HEPES buffer)
# Assay type: biochemical
# Details: human PAI-1
# Experimental: 0.1 M HEPES, 0.1 M NaCl. 1 mM EDTA. 0.1% Polyethylene glycol 8,000 (Hampton Research Corporation),
# 2 mM Dimethyldecylphoshine oxide [Apo-10] (Fluka Corporation)
# T1 sequence (P05121 24-402): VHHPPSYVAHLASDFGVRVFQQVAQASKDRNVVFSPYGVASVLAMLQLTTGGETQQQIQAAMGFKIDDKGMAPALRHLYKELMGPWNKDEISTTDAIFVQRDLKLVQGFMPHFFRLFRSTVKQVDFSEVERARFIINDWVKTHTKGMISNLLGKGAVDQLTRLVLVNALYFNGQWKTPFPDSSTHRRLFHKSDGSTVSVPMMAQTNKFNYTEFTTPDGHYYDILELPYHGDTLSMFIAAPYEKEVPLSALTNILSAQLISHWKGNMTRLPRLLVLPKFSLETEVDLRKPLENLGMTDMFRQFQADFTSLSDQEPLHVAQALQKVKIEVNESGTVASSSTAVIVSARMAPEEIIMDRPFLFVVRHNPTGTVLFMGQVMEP
SMILES,Inhibition Rate of PAI-1 Activity (%) (compound concentration 1 μM),Inhibition Rate of PAI-1 Activity (%) (compound concentration 3 μM),Inhibition Rate of PAI-1 Activity (%) (compound concentration 10 μM),Inhibition Rate of PAI-1 Activity (%) (compound concentration 25 μM),Inhibition Rate of PAI-1 Activity (%) (compound concentration 0.1 μM),Inhibition Rate of PAI-1 Activity (%) (compound concentration 0.3 μM)
CC(C)(C)c1ccc(COc2ccc(N3CCN(c4ccc(OC(F)(F)F)cc4)CC3)cc2/C=C/C(=O)O)cc1 [Compound 418],73%,95%,94%,90%,–,–
CC(C)(C)c1ccc(COc2ccc(N3CCN(c4ccc(OC(F)(F)F)cc4)CC3)cc2CCC(=O)O)cc1 [Compound 419],41%,93%,98%,>99%,–,–
CC(C)(C)c1ccc(COc2ccc(-c3ccc(OC(F)(F)F)cc3)cc2C(=O)O)cc1 [Compound 421],14%,81%,–,–,0%,3%
CCCCC(CC(=O)O)c1cc(-c2ccc(OC(F)(F)F)cc2)ccc1Oc1ccc(C(C)(C)C)cc1 (centres unmarked) [Compound 422],72%,>99%,–,–,12%,24%
CCCCC(Nc1cc(-c2ccc(OC(F)(F)F)cc2)ccc1Oc1ccc(C(C)(C)C)cc1)C(=O)O (centres unmarked) [Compound 423],74%,96%,–,–,1%,1%
CCCCCOc1cc(-c2ccc(OC(F)(F)F)cc2)cc(OCCCCC)c1OCC(=O)O [Compound 424],38%,>99%,–,–,0%,4%
CCCCCCCOc1cc(-c2ccc(OC(F)(F)F)cc2)cc(OCCCCCCC)c1OCC(=O)O [Compound 425],>99%,–,–,–,17%,54%
CCCCC(Oc1cc(Oc2ccc(C(C)(C)C)cc2)cc(-c2ccc(OC(F)(F)F)cc2)c1)C(=O)O (centres unmarked) [Compound 426],95%,97%,–,–,10%,29%
CC(C)(C)c1ccc(Oc2cc(OCC(=O)O)cc(-c3ccc(OC(F)(F)F)cc3)c2)cc1 [Compound 427],62%,97%,–,–,1%,27%
CCCCN(CC(=O)O)c1cc(-c2ccc(OC(F)(F)F)cc2)ccc1Oc1ccc(C(C)(C)C)cc1 [Compound 428],92%,94%,–,–,18%,36%
CCCCCCOc1ccc(-c2ccc(OC(F)(F)F)cc2)cc1OC(CCCCCC)C(=O)O (centres unmarked) [Compound 429],93%,95%,–,–,7%,9%
CCCCCCOc1cc(-c2ccc(OC(F)(F)F)cc2)ccc1OC(CCCCCC)C(=O)O (centres unmarked) [Compound 430],97%,>99%,–,–,1%,15%
CC(C)(C)c1ccc(Oc2ccc(Nc3ccc(OC(F)(F)F)cc3)cc2/C=C/C(=O)O)cc1 [Compound 431],77%,>99%,–,–,0%,0%
CC(C)(C)c1ccc(Oc2ccc(Nc3ccc(OC(F)(F)F)cc3)cc2CCC(=O)O)cc1 [Compound 432],25%,97%,–,–,4%,0%
CCCCN(CC(=O)O)c1cc(-c2ccc(OC(F)(F)F)cc2)ccc1OCCCCc1ccccc1 [Compound 433],41%,98%,–,–,13%,6%
CC(C)(C)c1ccc(Oc2cc(-c3ccc(OC(F)(F)F)cc3)ccc2C(=O)O)cc1 [Compound 434],66%,>99%,–,–,14%,8%
CCCN(CC(=O)O)c1cc(-c2ccc(OC(F)(F)F)cc2)ccc1Oc1ccc(C(C)(C)C)cc1 [Compound 435],81%,98%,–,–,12%,29%
CC(C)(C)c1cccc(Oc2cc(-c3ccc(OC(F)(F)F)cc3)ccc2OCC(=O)O)c1 [Compound 436],63%,>99%,–,–,3%,19%
CC(C)(C)c1cccc(Oc2ccc(-c3ccc(OC(F)(F)F)cc3)cc2/C=C/C(=O)O)c1 [Compound 437],67%,98%,–,–,0%,12%
CC(C)(C)c1cccc(Oc2ccc(-c3ccc(OC(F)(F)F)cc3)cc2CCC(=O)O)c1 [Compound 438],50%,>99%,–,–,13%,11%
CC(C)(C)c1cccc(Oc2ccc(-c3ccc(OC(F)(F)F)cc3)cc2OCC(=O)O)c1 [Compound 439],44%,>99%,–,–,12%,9%
